Results: patent US20250059198A1, “BRM DEGRADING COMPOUNDS AND ASSOCIATED METHODS OF USE” (Arvinas Operations, Inc., priority 2021, published 2025)

Molecular target: T1, BRM (Homo sapiens, UniProt P51531)
T1 construct: Western Blot Screen of BRM Degradation in SW1573 Cells; endogenous in cells; host or cells: SW1573 cells
Experiment: BRM degradation (Dmax and DC50) in SW1573 cells, Western blot screen / In-Cell Western screen
Format: cell-based
Conditions: overnight (18-20 hours) treatment; for Dmax: read-out: Dmax (%)** (% degraded)
How it was run: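 Dmax and DC50 were derived from BRM levels normalised to an alpha-tubulin control, measured by chemiluminescent Western blotting of lysates or by PFA-fixed In-Cell Western on LI-COR Odyssey. SW1573 cells received compound overnight (18–20 h, 0.1% DMSO final).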

T1 sequence (P51531 whole entry): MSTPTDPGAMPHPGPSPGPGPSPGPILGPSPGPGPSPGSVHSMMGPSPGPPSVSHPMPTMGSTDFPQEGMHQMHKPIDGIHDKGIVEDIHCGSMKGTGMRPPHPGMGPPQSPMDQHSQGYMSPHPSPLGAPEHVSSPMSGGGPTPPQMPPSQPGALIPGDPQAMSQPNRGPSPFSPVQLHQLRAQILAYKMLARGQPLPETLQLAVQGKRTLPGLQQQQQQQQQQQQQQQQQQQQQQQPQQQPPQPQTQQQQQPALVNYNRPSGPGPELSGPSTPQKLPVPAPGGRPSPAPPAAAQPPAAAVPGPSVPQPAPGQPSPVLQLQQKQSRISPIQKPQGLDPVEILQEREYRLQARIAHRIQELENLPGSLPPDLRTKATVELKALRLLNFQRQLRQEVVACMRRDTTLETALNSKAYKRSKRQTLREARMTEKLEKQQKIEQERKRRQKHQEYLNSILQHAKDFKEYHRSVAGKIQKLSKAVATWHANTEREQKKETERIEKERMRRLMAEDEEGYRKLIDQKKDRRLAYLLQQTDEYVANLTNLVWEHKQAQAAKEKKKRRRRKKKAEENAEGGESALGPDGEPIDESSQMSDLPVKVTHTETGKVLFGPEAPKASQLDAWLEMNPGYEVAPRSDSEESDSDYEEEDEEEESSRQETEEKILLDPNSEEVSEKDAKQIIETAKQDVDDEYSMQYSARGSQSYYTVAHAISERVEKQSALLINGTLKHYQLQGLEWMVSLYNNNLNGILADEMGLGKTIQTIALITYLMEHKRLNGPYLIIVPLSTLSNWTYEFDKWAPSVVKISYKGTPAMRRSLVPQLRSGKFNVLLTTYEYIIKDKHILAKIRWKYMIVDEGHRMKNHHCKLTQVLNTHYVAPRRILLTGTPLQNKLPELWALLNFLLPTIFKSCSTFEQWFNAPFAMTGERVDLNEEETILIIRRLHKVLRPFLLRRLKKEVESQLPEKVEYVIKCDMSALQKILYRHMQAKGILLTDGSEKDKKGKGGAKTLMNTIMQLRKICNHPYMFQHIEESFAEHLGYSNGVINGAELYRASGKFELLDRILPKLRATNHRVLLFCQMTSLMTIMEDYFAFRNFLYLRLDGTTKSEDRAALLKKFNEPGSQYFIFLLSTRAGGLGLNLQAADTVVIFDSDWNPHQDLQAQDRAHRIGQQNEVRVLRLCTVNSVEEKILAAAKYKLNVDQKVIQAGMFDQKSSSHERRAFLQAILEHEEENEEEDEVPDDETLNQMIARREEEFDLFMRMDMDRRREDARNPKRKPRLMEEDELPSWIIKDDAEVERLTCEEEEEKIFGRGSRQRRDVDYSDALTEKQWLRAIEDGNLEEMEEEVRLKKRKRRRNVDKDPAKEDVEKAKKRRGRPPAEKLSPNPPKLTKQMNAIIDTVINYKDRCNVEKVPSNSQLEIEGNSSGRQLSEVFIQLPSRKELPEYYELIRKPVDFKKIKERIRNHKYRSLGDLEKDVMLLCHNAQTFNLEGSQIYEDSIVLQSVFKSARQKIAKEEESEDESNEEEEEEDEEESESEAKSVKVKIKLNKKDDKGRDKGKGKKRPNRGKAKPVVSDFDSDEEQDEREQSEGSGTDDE

| SMILES | DC50 | Dmax |
| --- | --- | --- |
| Cc1ncsc1-c1ccc([C@H](C)NC(=O)[C@@H]2C[C@@H](O)CN2C(=O)[C@@H](c2cc(N3CCC(CN4CCC5(CC4)CC(N4CCO[C@@H](C(=O)N6C7CCC6CN(c6cc(-c8ccccc8O)nnc6N)C7)C4)C5)CC3)no2)C(C)C)cc1 [Compound 62, (2S,4R)-1-[(2R)-2-{3-[4-({2-[(2R)-2-{3-[3-amino-6-(2-hydroxyphenyl)pyridazin-4-yl]-3,8-diazabicyclo[3.2.1]octane-8-carbonyl}morpholin-4-yl]-7-azaspiro[3.5]nonan-7-yl}methyl)piperidin-1-yl]-1,2-oxazol-5-yl}-3-methylbutanoyl]-4-hydroxy-N-[(1S)-1-[4-(4-methyl-1,3-thiazol-5-yl)phenyl]ethyl]pyrrolidine-2-carboxamide] | < 2.5 nM | > 75% |
| Cc1ncsc1-c1ccc([C@H](C)NC(=O)[C@@H]2C[C@@H](O)CN2C(=O)[C@@H](c2cc(N3CCC(CN4CCC5(CC4)CC(n4cc(C#Cc6cc(-c7ccccc7O)nnc6N)cn4)C5)CC3)no2)C(C)C)cc1 [Compound 63, (2S,4R)-1-[(2R)-2-[3-(4-{[2-(4-{2-[3-amino-6-(2-hydroxyphenyl)pyridazin-4-yl]ethynyl}-1H-pyrazol-1-yl)-7-azaspiro[3.5]nonan-7-yl]methyl}piperidin-1-yl)-1,2-oxazol-5-yl]-3-methylbutanoyl]-4-hydroxy-N-[(1S)-1-[4-(4-methyl-1,3-thiazol-5-yl)phenyl]ethyl]pyrrolidine-2-carboxamide] | < 2.5 nM | > 75% |
| Cc1ncsc1-c1ccc([C@H](C)NC(=O)[C@@H]2C[C@@H](O)CN2C(=O)[C@@H](c2cc(OCCN3CCC(OC(=O)N4CCN(c5cc(-c6ccccc6O)nnc5N)CC4)CC3)no2)C(C)C)cc1 [Compound 64, 1-[2-({5-[(2R)-1-[(2S,4R)-4-hydroxy-2-{[(1S)-1-[4-(4-methyl-1,3-thiazol-5-yl)phenyl]ethyl]carbamoyl}pyrrolidin-1-yl]-3-methyl-1-oxobutan-2-yl]-1,2-oxazol-3-yl}oxy)ethyl]piperidin-4-yl 4-[3-amino-6-(2-hydroxyphenyl)pyridazin-4-yl]piperazine-1-carboxylate] | 2.5 to 10 nM | > 75% |
| Cc1ncsc1-c1ccc([C@H](C)NC(=O)[C@@H]2C[C@@H](O)CN2C(=O)[C@@H](c2cc(N3CCC(CN4CCC(OC(=O)N5CCN(c6cc(-c7ccccc7O)nnc6N)CC5)CC4)CC3)no2)C(C)C)cc1 [Compound 65, 1-[(1-{5-[(2R)-1-[(2S,4R)-4-hydroxy-2-{[(1S)-1-[4-(4-methyl-1,3-thiazol-5-yl)phenyl]ethyl]carbamoyl}pyrrolidin-1-yl]-3-methyl-1-oxobutan-2-yl]-1,2-oxazol-3-yl}piperidin-4-yl)methyl]piperidin-4-yl 4-[3-amino-6-(2-hydroxyphenyl)pyridazin-4-yl]piperazine-1-carboxylate] | < 2.5 nM | > 75% |
| CC(C)[C@@H](C(=O)N1C[C@H](O)C[C@H]1C(=O)N[C@@H](C)c1ccc(C#N)cc1)c1cc(OCCN2CCN(CCOc3cc(N4C5CCC4CN(c4cc(-c6ccccc6O)nnc4N)C5)ccn3)CC2)no1 [Compound 66, (2S,4R)-1-[(2R)-2-{3-[2-(4-{2-[(4-{3-[3-amino-6-(2-hydroxyphenyl)pyridazin-4-yl]-3,8-diazabicyclo[3.2.1]octan-8-yl}pyridin-2-yl)oxy]ethyl}piperazin-1-yl)ethoxy]-1,2-oxazol-5-yl}-3-methylbutanoyl]-N-[(1S)-1-(4-cyanophenyl)ethyl]-4-hydroxypyrrolidine-2-carboxamide] | 2.5 to 10 nM | > 75% |
| Cc1ncsc1-c1ccc([C@H](C)NC(=O)[C@@H]2C[C@@H](O)CN2C(=O)[C@H](c2cc(O[C@H]3C[C@H](CN4CCC(O[C@H]5C[C@H](N6CCOC7(CCN(c8cc(-c9ccccc9O)nnc8N)CC7)C6)C5)CC4)C3)no2)C(C)C)cc1 [Compound 67, (2S,4R)-4-hydroxy-N-[(1S)-1-[4-(4-methyl-1,3-thiazol-5-yl)phenyl]ethyl]-1-[(2S)-3-methyl-2-{3-[(1r,3r)-3-({4-[(1r,3r)-3-{9-[3-amino-6-(2-hydroxyphenyl)pyridazin-4-yl]-1-oxa-4,9-diazaspiro[5.5]undecan-4-yl}cyclobutoxy]piperidin-1-yl}methyl)cyclobutoxy]-1,2-oxazol-5-yl}butanoyl]pyrrolidine-2-carboxamide] | 10 to 30 nM | > 75% |
| Cc1ncsc1-c1ccc([C@H](C)NC(=O)[C@@H]2C[C@@H](O)CN2C(=O)[C@@H](c2cc(O[C@H]3C[C@H](CN4CCC(O[C@H]5C[C@H](N6CCOC7(CCN(c8cc(-c9ccccc9O)nnc8N)CC7)C6)C5)CC4)C3)no2)C(C)C)cc1 [Compound 68, (2S,4R)-4-hydroxy-N-[(1S)-1-[4-(4-methyl-1,3-thiazol-5-yl)phenyl]ethyl]-1-[(2R)-3-methyl-2-{3-[(1r,3r)-3-({4-[(1r,3r)-3-{9-[3-amino-6-(2-hydroxyphenyl)pyridazin-4-yl]-1-oxa-4,9-diazaspiro[5.5]undecan-4-yl}cyclobutoxy]piperidin-1-yl}methyl)cyclobutoxy]-1,2-oxazol-5-yl}butanoyl]pyrrolidine-2-carboxamide] | < 2.5 nM | > 75% |
| Cc1ncsc1-c1ccc([C@H](C)NC(=O)[C@@H]2C[C@@H](O)CN2C(=O)[C@@H](c2cc(N3CCC(CN4CCC(O[C@H]5C[C@H](N6CCC(C(C)n7cc(/C=C/c8cc(-c9ccccc9O)nnc8N)cn7)CC6)C5)CC4)CC3)no2)C(C)C)cc1 (stereo partly drawn) [Compound 69, (2S,4R)-4-hydroxy-N-[(1S)-1-[4-(4-methyl-1,3-thiazol-5-yl)phenyl]ethyl]-1-[(2R)-3-methyl-2-{3-[4-({4-[(1r,3r)-3-[4-(1-{4-[(1E)-2-[3-amino-6-(2-hydroxyphenyl)pyridazin-4-yl]ethenyl]-1H-pyrazol-1-yl}ethyl)piperidin-1-yl]cyclobutoxy]piperidin-1-yl}methyl)piperidin-1-yl]-1,2-oxazol-5-yl}butanoyl]pyrrolidine-2-carboxamide] | < 2.5 nM | > 75% |
| Cc1ncsc1-c1ccc([C@H](C)NC(=O)[C@@H]2C[C@@H](O)CN2C(=O)[C@@H](c2cc(N3CCC(CN4CCC5(CC4)CC(N4CCC[C@@H](CN6C7CCC6CN(c6cc(-c8ccccc8O)nnc6N)C7)C4)C5)CC3)no2)C(C)C)cc1 [Compound 70, (2S,4R)-1-[(2R)-2-{3-[4-({2-[(3R)-3-({3-[3-amino-6-(2-hydroxyphenyl)pyridazin-4-yl]-3,8-diazabicyclo[3.2.1]octan-8-yl}methyl)piperidin-1-yl]-7-azaspiro[3.5]nonan-7-yl}methyl)piperidin-1-yl]-1,2-oxazol-5-yl}-3-methylbutanoyl]-4-hydroxy-N-[(1S)-1-[4-(4-methyl-1,3-thiazol-5-yl)phenyl]ethyl]pyrrolidine-2-carboxamide] | < 2.5 nM | > 75% |
| Cc1ncsc1-c1ccc([C@H](C)NC(=O)[C@@H]2C[C@@H](O)CN2C(=O)[C@@H](c2cc(N3CCC(CN4CCC5(CC4)CC(N4CCC[C@@](O)(CN6C7CCC6CN(c6cc(-c8ccccc8O)nnc6N)C7)C4)C5)CC3)no2)C(C)C)cc1 [Compound 71, (2S,4R)-1-[(2R)-2-{3-[4-({2-[(3S)-3-({3-[3-amino-6-(2-hydroxyphenyl)pyridazin-4-yl]-3,8-diazabicyclo[3.2.1]octan-8-yl}methyl)-3-hydroxypiperidin-1-yl]-7-azaspiro[3.5]nonan-7-yl}methyl)piperidin-1-yl]-1,2-oxazol-5-yl}-3-methylbutanoyl]-4-hydroxy-N-[(1S)-1-[4-(4-methyl-1,3-thiazol-5-yl)phenyl]ethyl]pyrrolidine-2-carboxamide] | < 2.5 nM | > 75% |
| CC(C)[C@@H](C(=O)N1C[C@H](O)C[C@H]1C(=O)N[C@@H](C)c1ccc(-c2scnc2C#CCOCCOCCOCCOc2cc(N3C4CCC3CN(c3cc(-c5ccccc5O)nnc3N)C4)ccn2)cc1)N1Cc2ccccc2C1=O [Compound 72, (2S,4R)-N-[(1S)-1-[4-(4-{3-[2-(2-{2-[(4-{3-[3-amino-6-(2-hydroxyphenyl)pyridazin-4-yl]-3,8-diazabicyclo[3.2.1]octan-8-yl}pyridin-2-yl)oxy]ethoxy}ethoxy)ethoxy]prop-1-yn-1-yl}-1,3-thiazol-5-yl)phenyl]ethyl]-4-hydroxy-1-[(2S)-3-methyl-2-(1-oxo-2,3-dihydro-1H-isoindol-2-yl)butanoyl]pyrrolidine-2-carboxamide] | ≥ 30 nM |  |
| Cc1ncsc1-c1ccc([C@H](C)NC(=O)[C@@H]2C[C@@H](O)CN2C(=O)[C@@H](c2cc(N3CCC(CN4CCC5(CC4)CC(N4C[C@H](CN6C7CCC6CN(c6cc(-c8ccccc8O)nnc6N)C7)O[C@H](C)C4)C5)CC3)no2)C(C)C)cc1 [Compound 73, (2S,4R)-1-[(2R)-2-{3-[4-({2-[(2R,6R)-2-({3-[3-amino-6-(2-hydroxyphenyl)pyridazin-4-yl]-3,8-diazabicyclo[3.2.1]octan-8-yl}methyl)-6-methylmorpholin-4-yl]-7-azaspiro[3.5]nonan-7-yl}methyl)piperidin-1-yl]-1,2-oxazol-5-yl}-3-methylbutanoyl]-4-hydroxy-N-[(1S)-1-[4-(4-methyl-1,3-thiazol-5-yl)phenyl]ethyl]pyrrolidine-2-carboxamide] | < 2.5 nM | > 75% |
| Cc1ncsc1-c1ccc([C@H](C)NC(=O)[C@@H]2C[C@@H](O)CN2C(=O)[C@@H](c2cc(N3CCC(CN4CCC(O[C@H]5C[C@H](N6CCC([C@@H](C)c7cnn(-c8cc(-c9ccccc9O)nnc8N)c7)CC6)C5)CC4)CC3)no2)C(C)C)cc1 [Compound 74, (2S,4R)-4-hydroxy-N-[(1S)-1-[4-(4-methyl-1,3-thiazol-5-yl)phenyl]ethyl]-1-[(2R)-3-methyl-2-{3-[4-({4-[(1r,3r)-3-{4-[(1R)-1-{1-[3-amino-6-(2-hydroxyphenyl)pyridazin-4-yl]-1H-pyrazol-4-yl}ethyl]piperidin-- yl}cyclobutoxy]piperidin-1-yl}methyl)piperidin-1-yl]-1,2-oxazol-5-yl}butanoyl]pyrrolidine-2-carboxamide] | < 2.5 nM | > 75% |
